Results as given in ChEMBL document CHEMBL1201862, “PubChem BioAssay data set” (2004).
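Grown in 96-well plates, cells were treated for 48 hours with each compound at five concentrations. Insufficient inhibition: endpoint recorded as highest concentration tested. The concentration for 50% growth inhibition is given as GI50.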 The source made the active and inactive calls. Cut-off read from the data, not from the text of the source: active = GI50 up to about 1.1 µM and inactive = higher.

Experiments:
Assay in all cases: NCI-60 cell line screen, 48 h
CCRF-CEM = system: CCRF-CEM
M14 = system: M14
NCI-H522 = system: NCI-H522
LOX IMVI = system: LOX IMVI
BT-549 = system: BT-549
NCI-H460 = system: NCI-H460
NCI/ADR-RES = system: NCI/ADR-RES
786-0 = system: 786-0
Malme-3M = system: Malme-3M
MCF7 = system: MCF7
HOP-92 = system: HOP-92
TK-10 = system: TK-10
OVCAR-3 = system: OVCAR-3
RXF 393 = system: RXF 393
EKVX = system: EKVX
NCI-H226 = system: NCI-H226
SN12C = system: SN12C
A498 = system: A498
SF-295 = system: SF-295
Hs-578T = system: Hs-578T
NCI-H23 = system: NCI-H23
UO-31 = system: UO-31
OVCAR-8 = system: OVCAR-8
IGROV-1 = system: IGROV-1
COLO 205 = system: COLO 205
A549 = system: A549
HOP-62 = system: HOP-62
HCC 2998 = system: HCC 2998
RPMI-8226 = system: RPMI-8226
SW-620 = system: SW-620
ACHN = system: ACHN
SF-539 = system: SF-539
HL-60 = system: HL-60
MOLT-4 = system: MOLT-4
KM12 = system: KM12
SF-268 = system: SF-268
HT-29 = system: HT-29
OVCAR-5 = system: OVCAR-5
U-251 = system: U-251
MDA-MB-435 = system: MDA-MB-435
DU-145 = system: DU-145
PC-3 = system: PC-3
SK-MEL-5 = system: SK-MEL-5
HCT-116 = system: HCT-116
MDA-MB-231 = system: MDA-MB-231
SNB-75 = system: SNB-75
CAKI-1 = system: CAKI-1
SNB-19 = system: SNB-19
OVCAR-4 = system: OVCAR-4
K562 = system: K562
SK-MEL-28 = system: SK-MEL-28
SK-MEL-2 = system: SK-MEL-2
UACC-257 = system: UACC-257
HCT-15 = system: HCT-15
UACC-62 = system: UACC-62
SK-OV-3 = system: SK-OV-3
T47D = system: T47D
SR = system: SR
MDA-N = system: MDA-N

How did the GI50 (CCRF-CEM) turn out when `Cc1ccc(C)n1-c1ccccc1C1C=Cn2c(=O)oc3c(OC(C)C)c(OC(C)C)c(O)c1c32` (stereo not given) was run?
Its GI50 is 18 µM (inactive).

And the GI50 (M14)?
The GI50 was 22.9 µM (inactive).

What about the GI50 (NCI-H522) of the same compound?
Its GI50 is 7.06 µM (inactive).

And the GI50 (LOX IMVI)?
Its GI50 is 14.2 µM (inactive).

What about the GI50 (BT-549) of the same compound?
The GI50 was 43.5 µM (inactive).

What about the GI50 (NCI-H460) of the same compound?
The GI50 was 22.3 µM (inactive).

And the GI50 (NCI/ADR-RES)?
The GI50 was 27.4 µM (inactive).

And the GI50 (786-0)?
The GI50 was 37.3 µM (inactive).

What about the GI50 (Malme-3M) of the same compound?
Its GI50 is 33.7 µM (inactive).

What about the GI50 (MCF7) of the same compound?
The GI50 was 16.6 µM (inactive).

What about the GI50 (HOP-92) of the same compound?
The GI50 was 24.9 µM (inactive).

And the GI50 (TK-10)?
The GI50 was 55.2 µM (inactive).

What about the GI50 (OVCAR-3) of the same compound?
Its GI50 is 27.5 µM (inactive).

What about the GI50 (RXF 393) of the same compound?
The GI50 was 7.78 µM (inactive).

What about the GI50 (EKVX) of the same compound?
The GI50 was 23.1 µM (inactive).

What about the GI50 (NCI-H226) of the same compound?
The GI50 was 15.8 µM (inactive).

What about the GI50 (SN12C) of the same compound?
Its GI50 is 76.6 µM (inactive).

What about the GI50 (A498) of the same compound?
The GI50 was 43.8 µM (inactive).

What about the GI50 (SF-295) of the same compound?
Its GI50 is 33.3 µM (inactive).

What about the GI50 (Hs-578T) of the same compound?
Its GI50 is 56 µM (inactive).

What about the GI50 (NCI-H23) of the same compound?
Its GI50 is 13.3 µM (inactive).

And the GI50 (UO-31)?
The GI50 was 12.7 µM (inactive).

And the GI50 (OVCAR-8)?
Its GI50 is 49.1 µM (inactive).

And the GI50 (IGROV-1)?
The GI50 was 54 µM (inactive).

What about the GI50 (COLO 205) of the same compound?
Its GI50 is 13.9 µM (inactive).

And the GI50 (A549)?
The GI50 was 16.5 µM (inactive).

And the GI50 (HOP-62)?
Its GI50 is 73.5 µM (inactive).

And the GI50 (HCC 2998)?
The GI50 was 8.57 µM (inactive).

And the GI50 (RPMI-8226)?
The GI50 was 4.9 µM (inactive).

And the GI50 (SW-620)?
Its GI50 is 11.4 µM (inactive).

What about the GI50 (ACHN) of the same compound?
Its GI50 is 33.3 µM (inactive).

And the GI50 (SF-539)?
Its GI50 is > 100 µM (inactive).

And the GI50 (HL-60)?
Its GI50 is 8.75 µM (inactive).

And the GI50 (MOLT-4)?
Its GI50 is 6.84 µM (inactive).

And the GI50 (KM12)?
The GI50 was 8.11 µM (inactive).

What about the GI50 (SF-268) of the same compound?
The GI50 was 43.8 µM (inactive).

What about the GI50 (HT-29) of the same compound?
Its GI50 is 18.2 µM (inactive).

And the GI50 (OVCAR-5)?
Its GI50 is > 100 µM (inactive).

What about the GI50 (U-251) of the same compound?
Its GI50 is 25.8 µM (inactive).

And the GI50 (MDA-MB-435)?
The GI50 was 6.1 µM (inactive).

What about the GI50 (DU-145) of the same compound?
The GI50 was 90.4 µM (inactive).

And the GI50 (PC-3)?
Its GI50 is 5.11 µM (inactive).

What about the GI50 (SK-MEL-5) of the same compound?
Its GI50 is 14.4 µM (inactive).

What about the GI50 (HCT-116) of the same compound?
The GI50 was 8.26 µM (inactive).

What about the GI50 (MDA-MB-231) of the same compound?
Its GI50 is 5.13 µM (inactive).

What about the GI50 (SNB-75) of the same compound?
The GI50 was 28.1 µM (inactive).

And the GI50 (CAKI-1)?
The GI50 was 22 µM (inactive).

And the GI50 (SNB-19)?
The GI50 was > 100 µM (inactive).

What about the GI50 (OVCAR-4) of the same compound?
The GI50 was 32.6 µM (inactive).

And the GI50 (K562)?
Its GI50 is 4.67 µM (inactive).

And the GI50 (SK-MEL-28)?
The GI50 was 28.6 µM (inactive).

What about the GI50 (SK-MEL-2) of the same compound?
Its GI50 is 7.33 µM (inactive).

And the GI50 (UACC-257)?
The GI50 was 17.1 µM (inactive).

What about the GI50 (HCT-15) of the same compound?
Its GI50 is 15.7 µM.

What about the GI50 (UACC-62) of the same compound?
The GI50 was 22.8 µM (inactive).

What about the GI50 (SK-OV-3) of the same compound?
The GI50 was > 100 µM (inactive).

For `Nc1nc(O)c2ncn([C@H]3CC[C@@H](CO)O3)c2n1`, which GI50 (CCRF-CEM) is on record?
Its GI50 is > 100 µM (inactive).

And the GI50 (M14)?
Its GI50 is > 100 µM (inactive).

What about the GI50 (LOX IMVI) of the same compound?
The GI50 was > 100 µM (inactive).

What about the GI50 (BT-549) of the same compound?
The GI50 was > 100 µM (inactive).

What about the GI50 (NCI-H460) of the same compound?
Its GI50 is > 100 µM (inactive).

What about the GI50 (NCI/ADR-RES) of the same compound?
Its GI50 is > 100 µM (inactive).

What about the GI50 (Malme-3M) of the same compound?
The GI50 was > 100 µM (inactive).

What about the GI50 (MCF7) of the same compound?
Its GI50 is > 100 µM (inactive).

And the GI50 (T47D)?
Its GI50 is > 100 µM (inactive).

What about the GI50 (HOP-92) of the same compound?
Its GI50 is > 100 µM (inactive).

And the GI50 (TK-10)?
Its GI50 is > 100 µM (inactive).

What about the GI50 (OVCAR-3) of the same compound?
The GI50 was > 100 µM (inactive).

What about the GI50 (RXF 393) of the same compound?
Its GI50 is > 100 µM (inactive).

What about the GI50 (NCI-H226) of the same compound?
Its GI50 is > 100 µM (inactive).

What about the GI50 (SN12C) of the same compound?
The GI50 was > 100 µM (inactive).

What about the GI50 (A498) of the same compound?
The GI50 was > 100 µM (inactive).

What about the GI50 (SF-295) of the same compound?
Its GI50 is > 100 µM (inactive).

And the GI50 (Hs-578T)?
The GI50 was > 100 µM (inactive).

What about the GI50 (NCI-H23) of the same compound?
Its GI50 is > 100 µM (inactive).

And the GI50 (UO-31)?
Its GI50 is > 100 µM (inactive).

What about the GI50 (OVCAR-8) of the same compound?
The GI50 was > 100 µM (inactive).

What about the GI50 (IGROV-1) of the same compound?
Its GI50 is > 100 µM (inactive).

What about the GI50 (COLO 205) of the same compound?
The GI50 was > 100 µM (inactive).

And the GI50 (HOP-62)?
Its GI50 is > 100 µM (inactive).

And the GI50 (RPMI-8226)?
Its GI50 is > 100 µM (inactive).

And the GI50 (SW-620)?
Its GI50 is > 100 µM (inactive).

And the GI50 (MOLT-4)?
The GI50 was > 100 µM (inactive).

And the GI50 (KM12)?
The GI50 was > 100 µM (inactive).

What about the GI50 (HT-29) of the same compound?
The GI50 was > 100 µM (inactive).

And the GI50 (OVCAR-5)?
The GI50 was > 100 µM (inactive).

What about the GI50 (U-251) of the same compound?
Its GI50 is > 100 µM (inactive).

What about the GI50 (SR) of the same compound?
The GI50 was > 100 µM (inactive).

What about the GI50 (MDA-MB-435) of the same compound?
Its GI50 is > 100 µM (inactive).

What about the GI50 (DU-145) of the same compound?
The GI50 was > 100 µM (inactive).

And the GI50 (PC-3)?
The GI50 was > 100 µM (inactive).

What about the GI50 (SK-MEL-5) of the same compound?
Its GI50 is > 100 µM (inactive).

What about the GI50 (HCT-116) of the same compound?
Its GI50 is > 100 µM (inactive).

What about the GI50 (SNB-75) of the same compound?
The GI50 was > 100 µM (inactive).

What about the GI50 (CAKI-1) of the same compound?
The GI50 was > 100 µM (inactive).

What about the GI50 (SNB-19) of the same compound?
The GI50 was > 100 µM (inactive).

What about the GI50 (OVCAR-4) of the same compound?
Its GI50 is > 100 µM (inactive).

And the GI50 (MDA-N)?
Its GI50 is > 100 µM (inactive).

What about the GI50 (K562) of the same compound?
The GI50 was > 100 µM (inactive).

What about the GI50 (SK-MEL-28) of the same compound?
The GI50 was > 100 µM (inactive).

What about the GI50 (SK-MEL-2) of the same compound?
Its GI50 is > 100 µM (inactive).

What about the GI50 (UACC-257) of the same compound?
Its GI50 is > 100 µM (inactive).

And the GI50 (HCT-15)?
The GI50 was over 100 µM.

What about the GI50 (UACC-62) of the same compound?
Its GI50 is > 100 µM (inactive).

What about the GI50 (SK-OV-3) of the same compound?
The GI50 was > 100 µM (inactive).
